# In US20250332081A1, “A Composition Against Osmotic Stress” (ELC Management LLC, priority 2022, published 2025):
# System: Normal Human Epidermal Keratinocytes (NHEK)
# Assay: Hyper-osmotic stress model in NHEKs: cell protection (alamarBlue viability) and combination index
# Type: cell-based
# Settings: 48 hrs, hyper-osmotic stress 450 mOsm
# Procedure: 1.2 g betaine (RDS 51-6709) was dissolved in 100 ml water with magnetic stirring for complete dissolution (Stock concentration 1.2%). 0.5 g Roselle extract (Hibiscus Sabdariffa Extract, Lucas Meyer Cosmetics Company) was dissolved in 10 mL water to achieve 5% stock solution. Then the solutions were filtrated with 0.22 um filter to keep sterile.
# Normal Human Epidermal Keratinocytes (NHEK, FC-0007) purchased from Lifeline Cell Technology were incubated at 37° C., 95% humidity and 5% CO2 in keratinocyte cell culture medium (DermaLife K Keratinocyte Medium Complete Kit, LL-0007, Lifeline cell technology) supplemented with growth factors and 1% Penicillin/Streptomycin (Thermo Fischer, Waltham, MA, USA). Cells were passaged upon reaching 80% confluency.
# NHEKs were plated in 96-well plates at 4,000/well density. After 24 h of incubation, the cells would have reached ˜80% confluency. 4.38 mg/mL NaCL was added in the culture media to achieve 450 osmolarity, on top of a baseline ˜300 mOsm.
# On day 1, NHEKs were seeded with culture medium (DermaLife K Keratinocyte Medium Complete Kit) in a 96-well plate at 3,000 cells/well. After 24 h adherence, a 2-active combination experiment was carried out in vitro. 21 data points were used for dose and effect, including 4 concentrations for betaine, 7 concentrations for roselle extract and their combination as below (Table 1). Cells were treated with the combination of these actives for 48 hrs (Separately diluted with cell culture medium, followed by mixing together to treat cells). Then cells were washed with Dulbecco's phosphate buffered saline (DPBS) twice, and then incubated in medium with 10% alamarBlue™ Cell Viability Reagent (Thermo Fisher, Waltham, MA, USA) for 120 minutes. The incubated plates were measured for fluorescence using a Perkin Elmer plate reader (VICTOR Nivo), at Ex 530 nm/Em 615 nm. The value are recorded as RFU value.
# The protective effect can be determined by Cell viability ratio (%) and Cell protection rate (%) as follows.
# According to the theory proposed by Chou and Talalay (TING-CHAO CHOU. Theoretical Basis, Experimental Design, and Computerized Simulation of Synergism and Antagonism in Drug Combination Studies. Pharmacol Rev 58:621-681, 2006), the level of synergism can be typically measured and quantified by the drug combination index (CI, a quantitative measure of drug combination effects) from experimental dose-response data. The concentration of each compound, the protection ratio of each compound or the combo of these two compounds data were input into computer for automated analysis using CalcuSyn software. […]
# Experiments were conducted at four levels of betaine and seven levels of roselle extract. […] Synergy value is classified based on the calculated combination index.
compound,measurement,setting,value
"C[N+](C)(C)CC(=O)[O-] [Betaine, trimethylglycine]",Protective Ratio (%),betaine 0.03% alone,8.924%
same,Protective Ratio (%),betaine 0.06% alone,19.658%
same,Protective Ratio (%),betaine 0.09% alone,15.259%
same,Protective Ratio (%),betaine 0.1% alone,17.451%
